Data from ChEMBL document CHEMBL1921754, “Sodium dl-α-tocopheryl-6-O-phosphate inhibits PGE₂ production in keratinocytes induced by UVB, IL-1β and peroxidants” (Bioorg Med Chem, 2011).
Active and inactive are the calls of the source. The rule behind the calls is not given here.

Columns and labels:
[1] = Protection against UVB irradiation-induced cell damage in NHEK assessed as inhibition of PGE2 production at 2 uM pretreated for 24 hrs before UVB irradiation measured after 24 hrs by enzymatic immunoassay; format: functional; conditions: Homo sapiens, light or radiation study
[2] = tested on: Keratinocyte; assay: Protection against UVB irradiation-induced SV40-transformed human keratinocytes damage assessed as inhibition of PGE2 production at 30 uM pretreated for 24 hrs before UVB irradiation measured after 24 hrs by ELISA; format: functional, cell-based
[3] = tested on: Zone of skin; assay: Prodrug conversion in 3D restructured human skin model assessed as conversion of compound to dl-alpha-tocopherol at 2% after 4 hrs by HPLC analysis; format: ADME, tissue-based
[4] = Protection against H2O2-induced cell damage in NHEK assessed as inhibition of PGE2 production at 2 uM pretreated for 24 hrs before H2O2 challenge measured after 24 hrs by enzymatic immunoassay; format: functional; conditions: Homo sapiens
[5] = (§1) Protection against t-BHP-induced cell damage in NHEK assessed as inhibition of PGE2 production at 2 uM pretreated for 24 hrs before t-BHP challenge measured after 24 hrs by enzymatic immunoassay; format: functional; conditions: Homo sapiens
[6] = Protection against IL1-beta-induced cell damage in NHEK assessed as inhibition of PGE2 production at 2 uM pretreated for 24 hrs before IL1-beta challenge measured after 24 hrs by enzymatic immunoassay; format: functional; conditions: Homo sapiens
[7] = Protection against IL1-beta-induced cell damage in NHEK assessed as inhibition of PGE2 production at 0.5 uM pretreated for 24 hrs before IL1-beta challenge measured after 24 hrs by enzymatic immunoassay; format: functional; conditions: Homo sapiens
[8] = Protection against IL1-beta-induced cell damage in NHEK assessed as inhibition of PGE2 production at 0.1 uM pretreated for 24 hrs before IL1-beta challenge measured after 24 hrs by enzymatic immunoassay; format: functional; conditions: Homo sapiens
[9] = organism: Homo sapiens; assay: Protection against H2O2-induced cell damage in NHEK assessed as inhibition of PGE2 production at 0.5 to 2 uM after 24 hrs by enzymatic immunoassay; format: functional
[10] = Protection against H2O2-induced cell damage in NHEK assessed as inhibition of PGE2 production at 0.5 to 2 uM pretreated for 24 hrs before H2O2 challenge measured after 24 hrs by enzymatic immunoassay; format: functional, Homo sapiens
[11] = organism: Homo sapiens; assay: as §1; format: functional

SMILES | inhibition at 2 µM [1] [%] | inhibition at 2 µM [6] [%] | inhibition at 0.5 µM [7] [%] | inhibition [9] | other results
Cc1ccc(S(=O)(=O)/C=C/C#N)cc1 | 9 | – | – | – | –
O=C1O[C@H]([C@@H](O)CO)C(O)=C1OP(=O)(O)O | – | – | – | – | inhibition [2]: inactive
CC(=O)Oc1c(C)c(C)c2c(c1C)CC[C@@](C)(CCC[C@H](C)CCC[C@H](C)CCCC(C)C)O2 (racemic) | – | 67 | 40 | inactive | Drug metabolism [3]: Active; inhibition at 2 µM [4]: 25%; inhibition at 2 µM [5]: 77.4%; inhibition at 0.1 µM [8]: 38%
CC1(C)[C@@H](O[C@H]2O[C@H](C(=O)[O-])[C@@H](O)[C@H](O)[C@H]2O[C@@H]2O[C@H](C(=O)[O-])[C@@H](O)[C@H](O)[C@H]2O)CC[C@]2(C)[C@H]3C(=O)C=C4[C@@H]5C[C@@](C)(C(=O)O)CC[C@]5(C)CC[C@@]4(C)[C@]3(C)CC[C@@H]12.[K+].[K+] [GLYCYRRHIZINATE DIPOTASSIUM] | – | 24 | 14 | inactive | inhibition (INH) [10]: 40%; inhibition [11]: inactive
C[S+]([O-])c1ccc(-c2nc(-c3ccc(F)cc3)c(-c3ccncc3)[nH]2)cc1 (stereo unspecified) [SB-203580] | 73 | – | – | – | –
Oc1c2ccccc2c2c3c(cccc13)N=N2 [SP-600125] | 33 | – | – | – | –
